Laboratory results published in US20040044304A1, “Local drug delivery using photosensitizer-mediated and electromagnetic radiation enhanced vascular permeability” (priority 2002, published 2004).

Test system: blood vessels within the dorsal window chamber
Type: in vivo, Syrian golden hamsters
Details: 150 kD FITC-Dextran conjugate; fluorescence microscopy
Excerpt: Syrian golden hamsters (Charles River Laboratories, Kingston, N.Y.) weighing between 60-70 gram were surgically implanted with titanium back-pack window chambers as described ([…] et al., 1980; Colantuoni et al., 1984; […] et al., 1994). Prior to the surgical procedure, the dorsal surface of the mouse was shaved with electric clippers (Sunbeam Oster 2-Speed, 150 Cadillac Lane, McMinnville, Tenn., 37110) and then the shaved skin covered in a depilatory cream (Nair, Carter Products, New York, N.Y., 10105) for 10 minutes to remove the remaining hair. A dorsal skin fold consisting of two layers of skin and muscle tissue was then sandwiched between two opposing titanium frames (Campus Research Machine Shop, University of California, San Diego 9500 Gilman Drive, La Jolla, Calif.) with a 15 mm circular opening in each. Layers of skin and muscle fascia were separated from the sub-cutaneous tissue, and removed until a thin monolayer of muscle and one layer of intact skin remained. A coverglass (Type Circle 1, Part #12-545-80 sourced from Fisher Scientific, 2761 Walnut Avenue, Tustin, Calif., 92780) held by an expansion ring in the circular window of one titanium frame was then placed on the exposed tissue to allow direct microscopic visualization of the vasculature. The window in the second opposing titanium frame was left open exposing the intact skin. Two days following the implantation of the titanium chamber, an in-dwelling PE10 catheter (VVR Scientific, Westchester, Pa.) was implanted in the carotid artery. The catheter tubing was passed sub-cutaneously from the ventral to the dorsal side of the neck, and exteriorized through the skin at the base of the chamber. The patency of the catheter was ensured by daily flushing of the in-dwelling implanted tip with 0.005-0.01 ml of heparinized saline (40 IU/ml). The heparin was sourced from Upjohn Co., 100 Route […], Prepack, N.J., 07977, and the saline from Abbott Laboratories, North Chicago, Ill., 60064. Microvascular observations using an intra-vital microscope were not undertaken until at least 4 days post-chamber implantation to mitigate against post-surgical trauma, and to confirm that blood vessels within the chamber were functioning and intact and patent. A chamber was considered suitable for subsequent studies if microscopic examination of the preparation met the following criteria (as applied in […] et al., 1994): The intra-vital microscopic studies were undertaken on un-sedated animals held in a Plexiglass tube (Campus Research Machine Shop, University of California, San Diego 9500 Gilman Drive, La Jolla, Calif.) from which the window chamber sandwich protruded horizontally, allowing visualization of the chamber on the microscope stage. The Plexiglass tube acted to restrain the animals without impeding respiration. The intra-vital microscopy was performed using a Leitz Ortholux II (McBain Instruments, Inc., 9601 […] Avenue, Chatsworth, Calif., 91311) fitted with a Leitz Wetzlar 25× saline immersion objective lens, 0.6 numerical aperture (McBain Instruments, Inc., 9601 […] Avenue, Chatsworth, Calif., 91311), a Leitz Wetzlar 10× dry Planfluotar lens, 0.3 numerical aperture (McBain Instruments, Inc., 9601 […] Avenue, Chatsworth, Calif., 91311) and a Leitz Wetzlar 4× EF dry lens, 0.12 numerical aperture (McBain Instruments, Inc., 9601 […] Avenue, Chatsworth, Calif., 91311). A 100 Watt Hg light source (Olympus Corporation, 2 Corporate Center Drive, Melville, N.Y., 11747-3157) was used for both trans- and epi-illumination. For the trans-illumination studies the light was filtered using a 420 nm blue filter which selectively passed light in the region of the maximum absorbance band of hemoglobin, causing the red blood cells to appear as dark objects against a gray background. In addition, a heat filter was placed in the light path prior to the condenser to prevent hyperthermic effects on the tissue being examined.

fluorescein diisothiocyanate dextran [FITC-Dextran, reference compound]
Retention of the molecule in the treated tissue field following PhotoPoint-induced release from the vasculature: at least 48 hrs
